Where “and” joins values, the source holds several entries; their conditions need not be identical. Identical values can stand only once.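 Test compounds were applied to cells in 96-well plates for 48 hours at 5 doses. GI50 = concentration required for 50% inhibition of growth. At the TGI there is no net growth.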
What was measured:
Assay in all cases: NCI-60 cell line screen, 48 h
LOX IMVI melanoma = test system: LOX IMVI melanoma
KM12 colon = test system: KM12 colon
OVCAR-8 ovarian = test system: OVCAR-8 ovarian
SF-295 CNS = test system: SF-295 CNS
NCI-H226 lung = test system: NCI-H226 lung
SK-MEL-5 melanoma = test system: SK-MEL-5 melanoma
SR leukemia = test system: SR leukemia
CAKI-1 renal = test system: CAKI-1 renal
BT-549 breast = test system: BT-549 breast
HOP-62 NSCLC = test system: HOP-62 NSCLC
M14 melanoma = test system: M14 melanoma
COLO 205 colon = test system: COLO 205 colon
HT29 colon = test system: HT29 colon
DU-145 prostate = test system: DU-145 prostate

Compound | TGI (LOX IMVI melanoma) [µM] | TGI (KM12 colon) | TGI (OVCAR-8 ovarian) [µM] | TGI (SF-295 CNS) | TGI (NCI-H226 lung) [µM] | TGI (SK-MEL-5 melanoma) | TGI (SR leukemia) | TGI (CAKI-1 renal) | TGI (BT-549 breast) [µM] | TGI (HOP-62 NSCLC) | TGI (M14 melanoma) [µM] | TGI (COLO 205 colon) | TGI (HT29 colon) | TGI (DU-145 prostate) | GI50 (CAKI-1 renal) [µM] | GI50 (LOX IMVI melanoma) | GI50 (KM12 colon)
COC(=O)/C=C/c1cnc2c(c1)oc(=O)n2C | > 100 | > 100 µM | > 100 | > 100 µM | > 100 | > 100 µM | > 100 µM | > 100 µM | > 100 | > 100 µM | > 100 | > 100 µM | > 100 µM | > 100 µM | – | – | –
COC(=O)C1(Cc2ccc(C)cc2)Cc2c(C)cccc2C1=O (configuration not stated) | 38.6 | 39.5 µM | > 100 | > 100 µM | 38.4 | 26.3 µM | 50.9 µM | > 100 µM | 69.7 | 65.5 µM | > 100 | 33.4 µM | 34.2 µM | 72 µM | – | – | –
OC1(C2(c3ccc(Cl)cc3)CCCC2)c2ccccc2C2=NCCN21 (configuration not stated) | 28.3 | 36.3 µM | 32 | 30.7 µM | 33 | 25.1 µM | 37.9 µM | 28.9 µM | 31.5 | 32.6 µM | 28.6 | 23.9 µM | 23.5 µM | 16.3 µM | – | – | –
O=C1CSC(c2cccc(Oc3ccccc3)c2)N1c1cccc(Cl)c1Cl (configuration not stated) | 34.3 | > 100 µM | 45.9 | > 100 µM | > 100 | 50 µM | 53.8 µM | > 100 µM | 50.4 | > 100 µM | > 100 | 44.1 µM | 63.1 µM | > 100 µM | – | – | –
C=COC(=O)N1C2CCCC(Cl)(C(C)=O)C1CC2 (configuration not stated) | > 100 | > 100 µM | > 100 | > 100 µM | > 100 | > 100 µM | > 100 µM | > 100 µM | > 100 | > 100 µM | > 100 | > 100 µM | > 100 µM | > 100 µM | – | – | –
O=c1oc2ccccc2n1CCCn1c(=O)oc2ccccc21 | > 100 | > 100 µM | > 100 | > 100 µM | > 100 | > 100 µM | > 100 µM | > 100 µM | > 100 | > 100 µM | > 100 | > 100 µM | > 100 µM | > 100 µM | – | – | –
Nc1ncnc2c1cnn2COCC(O)CO (configuration not stated) | > 100 | > 100 µM | > 100 | > 100 µM | > 100 | > 100 µM | > 100 µM | > 100 µM | > 100 | > 100 µM | > 100 | > 100 µM | > 100 µM | > 100 µM | – | – | –
Nc1nc(Cl)c(C=O)c(NCC2(CO)CCC2)n1 | 26.9 | > 100 µM | 33.8 | 67.6 µM | 34 | 31.4 µM | 43.8 µM | 33.9 µM | > 100 | 65.1 µM | > 100 | 78.3 µM | > 100 µM | > 100 µM | – | – | –
CC1(C)/C(=N\Nc2ccc([N+](=O)[O-])cc2[N+](=O)[O-])C2CCC1C2 (configuration not stated) | > 100 | > 100 µM | > 100 | 71.5 µM | > 100 | > 100 µM | > 100 µM | > 100 µM | > 100 | > 100 µM | > 100 | > 100 µM | > 100 µM | > 100 µM | – | – | –
COc1ccc(Br)c(C=Nc2cccc3cc(OC)c(OC)cc23)c1 | 19.2 | > 95.7 µM | > 59.9 | > 100 µM | > 100 | > 94.9 µM | 11.6 µM | > 100 µM | > 46 | > 100 µM | > 58.1 | > 100 µM | > 71.8 µM | > 100 µM | – | – | –
CS(=O)(=O)CCC(N)P(=O)(O)O (configuration not stated) | > 100 | > 100 µM | > 100 | > 100 µM | > 100 | > 100 µM | > 100 µM | > 100 µM | > 100 | > 100 µM | > 100 | > 100 µM | > 100 µM | > 100 µM | – | – | –
CC1(C)CC[C@]2(C(=O)O)CC[C@]3(C)C(=CC[C@@H]4[C@@]5(C)CC[C@H](OC6OC(CO)C(O)C(O)C6O)C(C)(C)[C@@H]5CC[C@]43C)[C@@H]2C1 (some centres not stated) | 3.23 | 2.86 µM | 3.12 | 3.2 µM | 3.4 | 3.54 µM | 5.53 µM | 5.93 µM | 2.59 | 3.14 µM | 3.12 | 3.21 µM | 2.98 µM | 4.49 µM | – | – | –
N#CC1=C(S)N(C2OC(CO)C(O)C(O)C2O)C(c2ccccc2)=CC1c1cccs1 (configuration not stated) | 36.9 | 34.7 µM | 65.9 | 34.8 µM | 41.3 | 31 µM | > 100 µM | 50.4 µM | 30.4 | 57 µM | > 100 | 38.6 µM | 37.5 µM | > 10 µM | – | – | –
CC(C)C[C@H](NC(=O)CCc1cccc2ccccc12)B(O)O | 1.77 | 5.4 µM | 19.6 | 20.2 µM | 0.392 | 1.85 µM | 2.2 µM | 3.94 µM | 2.15 | 14.3 µM | 3.72 | 36.3 µM | 6.27 µM | > 65.6 µM | – | – | –
O=C(N[C@@H](Cc1ccccc1)B(O)O)[C@H](Cc1cccc2ccccc12)NC(=O)N1CCOCC1 | 0.00343 | 0.0041 µM and 0.0149 µM | 0.122 | 0.0304 µM and 0.0239 µM | 0.00164 | 0.00392 µM and 0.014 µM | 0.0126 µM | 0.048 µM and 0.18 µM | 0.00335 | 0.0316 µM and 0.0488 µM | 0.00405 | 0.197 µM and 0.233 µM | 0.0105 µM and 0.0106 µM | 0.403 µM and 0.527 µM | 0.0228 | – | –
C[C@]12CC/C(=N\O)C=C1CC[C@@H]1[C@@H]2CC[C@]2(C)C(=N/O)/C(=C/c3ccncc3)C[C@@H]12 | > 100 | > 100 µM | > 100 | > 100 µM | 87.3 | 23 µM | 62.2 µM | > 100 µM | > 100 | > 100 µM | 34 | > 100 µM | 42.1 µM | > 100 µM | – | – | –
COC1C(OC(C)=O)CC(=O)OC(C)C/C=C/C=C\C(O)C(C)CC(CC=O)C1OC1OC(C)C(OC2CC(C)(O)C(OC(=O)CC(C)C)C(C)O2)C(N(C)C)C1O (configuration not stated) | > 100 | > 100 µM | > 100 | > 100 µM | > 100 | > 100 µM | 69 µM and 38.7 µM | > 100 µM | > 100 | > 100 µM | > 100 | > 100 µM | > 100 µM | > 100 µM | – | 41.4 µM and > 100 µM | 37.9 µM and 85.3 µM
COc1ccc2c(c1)C(=O)[C@@](Nc1ccc(C=O)cc1)(OC)[C@@](OC)(c1ccc([N+](=O)[O-])cc1)O2 | > 10 | > 10 µM | > 10 | > 10 µM | > 10 | > 10 µM | > 10 µM | > 10 µM | > 10 | > 10 µM | > 10 | > 10 µM | > 10 µM | > 10 µM | – | – | –
Cc1cc(=O)n2nc(CSc3n[nH]c(=S)s3)sc2n1 | > 100 | > 100 µM | > 100 | > 100 µM | > 100 | > 100 µM | > 100 µM | > 100 µM | > 100 | > 100 µM | > 100 | > 100 µM | > 100 µM | > 100 µM | – | – | –
O=C1c2cc([N+](=O)[O-])sc2C(=O)c2cc([N+](=O)[O-])sc21 | 3.68 | 14.8 µM | 18.6 | 23.9 µM | 26.3 | 7.21 µM | 6 µM | 8.81 µM | 3.95 | 15.3 µM | 9.25 | 6.1 µM | 11.5 µM | 23.9 µM | – | – | –
COc1ccc(C(=O)N(Cc2cccnc2)C(=S)N(Cc2cccnc2)C(=O)c2ccc(OC)cc2)cc1 | > 100 | > 100 µM | > 100 | > 100 µM | > 100 | > 100 µM | > 100 µM | > 100 µM | > 100 | > 100 µM | > 100 | > 100 µM | > 100 µM | > 100 µM | – | – | –

— PubChem BioAssay (NCI)
